Each structure is given as a SMILES string.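 Step 1: Grow cells in 96-well plates. Step 2: Expose to compound for 48 hours at 5 concentrations. Step 3: Interpolate endpoints linearly; if unreached, use highest concentration. GI50 is the concentration that inhibits growth by half. TGI denotes the concentration required for complete inhibition of growth.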

What all share (assay): inhibition of tumour cell growth, NCI panel, 48 h
Test [1] concerns EKVX NSCLC.
The test system of test [2] is HCC-2998 colon.
The test system of test [3] is LOX IMVI melanoma.
For test [4], the system named is NCI-H460 lung.
Test [5] concerns OVCAR-5 ovarian.
The subject of test [6] is SF-539 CNS.
Test [7] concerns SK-MEL-5 melanoma.
Test [8] relates to SK-OV-3 ovarian.
Test [9] relates to SW-620 colon.
The test system of test [10] is UACC-257 melanoma.

On to `CCN(CC)CCS(=O)(=O)CCNc1ccnc2cc(Cl)ccc12`, for which the GI50 was 4.31 µM in [1]; 8.81 µM in [2]; 0.982 µM in test [3]; 2.74 µM in test [4]; 3.97 µM in test [5]; 2.93 µM in test [6]. Besides, the GI50 was 3.79 µM in test [7], 6.58 µM in [8], 0.608 µM in [9] and 5.13 µM in test [10]. Besides, the TGI was greater than 46.1 µM in test [1]; greater than 23.8 µM in [2]; 5.85 µM in test [3]; greater than 25.7 µM in test [4]; greater than 100 µM in test [5]; 14.3 µM in [6]. Besides, the TGI was found to be 10.4 µM in test [7], 70.2 µM in test [8], 12.5 µM in test [9] and 26.1 µM in test [10].
With `O=C(/C=C/c1cccc(Oc2ccc(Cl)cc2)c1)c1ccccc1`, the GI50 is 104 µM in [1]; 117 µM in test [2]; 16.9 µM in test [3]; 60.1 µM in test [4]; 26.3 µM in [5]; 21.3 µM in test [6]. In addition, the GI50 was 36 µM in test [7], 195 µM in test [8], 22.6 µM in [9] and 185 µM in [10]. The TGI in test [1] stood at 261 µM; in test [2], 255 µM; in [3] it was 33 µM; in test [4], 208 µM; in test [5] it was 83.6 µM; in [6] it was 53.2 µM. Besides, the TGI in test [7] turned out to be 127 µM; in test [8], 381 µM; in [9] it was 49.4 µM; in test [10], 344 µM.
Consider `Cc1cc(-c2ccco2)cc(C)c1/C=C/c1cncc(-c2nn[nH]n2)c1`, for which the GI50 in test [1], in test [2], in test [3], in test [4], in test [5] and in [6] was greater than 25 µM in each case. Also, the GI50 in [7], in test [8], in test [9] and in [10] was greater than 25 µM in each case. The TGI in test [1], in test [2], in test [3], in test [4], in [5] and in test [6] was greater than 25 µM each time. In addition, the TGI in [7], in [8], in [9] and in [10] was greater than 25 µM each time.
As for `Cc1cn2c(/C=C3/C(=O)Nc4ccc(C(=O)O)cc43)c(C)nc2s1`, the GI50 in [1], in test [2], in test [3], in [4], in test [5] and in test [6] was greater than 100 µM in each case. Also, the GI50 in [7], in [8], in test [9] and in test [10] was greater than 100 µM throughout. For the same molecule, the TGI in test [1], in test [2], in [3], in test [4], in test [5] and in [6] was greater than 100 µM throughout. Also, the TGI in test [7], in test [8], in test [9] and in test [10] was greater than 100 µM in each case.
As to `O=S(=O)(NCCCNc1nccc(-c2c(-c3cccc(F)c3)nc3occn23)n1)c1cccc2ccccc12`, the GI50 in [1] was 6.04 µM; in [2], 2.52 µM; in [3] it was 4.28 µM; in [4], 4.79 µM; in test [5], 9.6 µM; in test [6], greater than 100 µM. Besides, the GI50 in [7] was 3.67 µM; in test [8], 3.76 µM; in test [9], 6.91 µM; in [10], 21 µM. Also, the TGI in test [1] is greater than 100 µM; in test [2], 5.74 µM; in test [3] it was greater than 100 µM; in test [4], greater than 100 µM; in [5] it was greater than 100 µM; in [6], greater than 100 µM. In addition, the TGI was 43.6 µM in test [7], greater than 100 µM in [8], greater than 100 µM in [9] and greater than 100 µM in test [10].
Regarding `O=C1C2C(C(=O)N1CC[Se][Se]CCN1C(=O)C3C(C1=O)[C@H]1C=C[C@@H]3C1)[C@H]1C=C[C@@H]2C1` (stereo not given in full), the GI50 was 0.274 µM in [1]; 2.62 µM in [2]; 0.167 µM in test [3]; 0.361 µM in [4]; 1.48 µM in [5]; 0.223 µM in test [6]. Further, the GI50 in test [7] was 1.67 µM; in test [8], 2.94 µM; in test [9], 2.62 µM; in test [10] it was 0.452 µM. For the same molecule, the TGI in test [1] stood at 0.969 µM; in test [2], 8.92 µM; in [3], 0.327 µM; in [4] it was 1.69 µM; in test [5], 5.58 µM; in [6] it was 0.467 µM. Further, the TGI in test [7] is 3.7 µM; in [8] it was 6.57 µM; in test [9], 7.59 µM; in test [10], 3.14 µM.
With `Cc1cc2c(cc1C)[n+](=O)c(C(=O)/C=C/c1ccccc1[N+](=O)[O-])c(C)n2[O-]`, the TGI in [1] is 99.1 µM; in [2], greater than 100 µM; in test [3] it was greater than 100 µM; in test [4] it was greater than 100 µM; in [5] it was greater than 100 µM; in test [6], 47.2 µM. Also, the TGI in [7] was greater than 100 µM; in test [8] it was greater than 68.6 µM; in test [9] it was greater than 100 µM; in [10] it was greater than 100 µM.
Turning to `COC(=O)C1=Nc2ccc(F)cc2/C1=C/c1sc(=S)[nH]c1O`, the GI50 is 0.987 µM in test [1]; 0.41 µM in test [2]; 0.0943 µM in [3]; 0.0804 µM in test [4]; 0.91 µM in test [5]; 0.0743 µM in [6]. Also, the GI50 in test [7] is 0.131 µM; in [8], 0.513 µM; in [9] it was 0.0499 µM; in test [10], 6.13 µM. In addition, the TGI in [1] is greater than 100 µM; in test [2], 12.1 µM; in test [3], greater than 32.6 µM; in test [4], 10.1 µM; in test [5] it was greater than 100 µM; in test [6], 0.751 µM. The TGI was 0.745 µM in test [7], 31.3 µM in test [8], greater than 100 µM in test [9] and greater than 100 µM in test [10].
As to `Cc1ccc(NC(=O)c2ccc(NC3=C(Cl)C(=O)N(Cc4ccccc4)C3=O)cc2)cc1Cl`, the GI50 in test [1] was 26.4 µM; in [2], 2.36 µM; in test [3], 3 µM; in test [4] it was 10.3 µM; in [5], 0.774 µM; in [6], 2.47 µM. Also, the GI50 in test [7] is 12 µM; in [8], 22.7 µM; in test [9] it was 1.99 µM; in test [10], 13.3 µM. Further, the TGI in [1] is greater than 100 µM; in test [2] it was 14.2 µM; in test [3], 14 µM; in [4] it was 27 µM; in test [5] it was 10.2 µM; in test [6], 16.4 µM. Besides, the TGI stood at 24.3 µM in [7], 54.6 µM in test [8], 11.8 µM in test [9] and 35.8 µM in test [10].
On to `O=C(CCC(=O)C1Cc2ccccc2C1=O)Nc1cccc(C(F)(F)F)c1` (stereo not given), for which the TGI in test [1], in test [2], in [3], in test [4], in test [5] and in [6] was greater than 100 µM throughout. The TGI in [7], in test [8], in test [9] and in [10] was greater than 100 µM each time.
